Results taken from patent US20100093811A1 (priority 2007, published 2010).
pIC50: −log10 of the molar value. Where a name gives a salt, the structure may show the parent alone. Read-outs that look alike come from different tables or passages of the source.

Experiments:
[1] = test system: acute HIV infection of T-lymphoid cells; experiment: Assay for inhibition of HIV replication (spread assay); type: cell-based, HIV-1; details: read-out: Spread - IC95
Method: • Assay for Inhibition of HIV Replication
Assays for the inhibition of acute HIV infection of T-lymphoid cells were conducted in accordance with Vacca, J. P. et al., Proc. Natl. Acad. Sci. USA 1994, 91: 4096.

wild-type HIV-1 protease = wild-type HIV-1 protease (Human immunodeficiency virus type 1 group M subtype B, UniProt P04585); experiment: Assay for inhibition of microbial expressed HIV protease; type: biochemical
In short: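 E. coli-expressed protease (5 pM) preincubated with inhibitor 30 min at room temperature in 50 mM sodium acetate pH 5.5, 100 mM NaCl, 0.1% BSA. Substrate Val-Ser-Gln-Asn-(betanapthyl)Ala-Pro-Ile-Val at 440 micromolar, 1 h at 30° C; acid-quenched, product peak area by C18 HPLC gives inhibition.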

[2] = Human immunodeficiency virus 1, T-lymphoid
[3] = wild-type HIV-1 protease expressed in E. coli, peptide substrate, pH 5.5, read-out: Enzyme Inhibition - IC50

`COC(=O)NC(C(=O)N[C@@H](C)CCC[C@@H](CO)N(C(C)C)S(=O)(=O)c1ccc(CO)cc1)C(c1cccc(F)c1)c1cccc(F)c1` (stereo partly drawn) [Example J46, 3-fluoro-β-(3-fluorophenyl)-N-{(1S,5S)-6-hydroxy-5-[{[4-(hydroxymethyl)phenyl]sulfonyl}(isopropyl)amino]-1-methylhexyl}-Nα-(methoxycarbonyl)phenylalaninamide] gave an IC95 [1, 2] of 0.018 µM and a pIC50 (wild-type HIV-1 protease; [3]) of 11.00.
Compound `COC(=O)N[C@H](C(=O)N[C@@H](C)CCC[C@@H](CO)N(C(C)C)S(=O)(=O)c1ccc(CO)cc1)C(c1ccccc1)c1ccccc1` [Example K1, N-{(1S,5S)-6-hydroxy-5-[{[4-(hydroxymethyl)phenyl]sulfonyl}(isopropyl)amino]-1-methylhexyl}-Nα-(methoxycarbonyl)-β-phenyl-L-phenylalaninamide] has an IC95 [1, 2] of 0.013 µM and a pIC50 (wild-type HIV-1 protease; [3]) of 10.74.
`CC[C@@H](CCC[C@@H](CO)N(C(C)C)S(=O)(=O)c1ccc(C(C)=O)cc1)NC(=O)[C@@H](NC(=O)OC)C(c1ccccc1)c1ccccc1` [Example K3, N-{(1S,5S)-5-[[(4-acetylphenyl)sulfonyl](isopropyl)amino]-1-ethyl-6-hydroxyhexyl}-Nα-(methoxycarbonyl)-β-phenyl-L-phenylalaninamide] gave an IC95 [1, 2] of 0.112 µM and a pIC50 (wild-type HIV-1 protease; [3]) of 9.03.
Work on `COC(=O)N[C@H](C(=O)N[C@@H](C)CCC[C@@H](CO)N(C(C)C)S(=O)(=O)c1ccc([C@H](C)O)cc1)C(c1ccccc1)c1ccccc1` [Example K4, N-{(1S,5S)-6-hydroxy-5-[({4-[(1S)-1-hydroxyethyl]phenyl}sulfonyl)(isopropyl)amino]-1-methylhexyl}-Nα-(methoxycarbonyl)-β-phenyl-L-phenylalaninamide] yielded an IC95 [1, 2] of 0.019 µM and a pIC50 (wild-type HIV-1 protease; [3]) of 10.82.
For `COC(=O)N[C@H](C(=O)N[C@@H](C)CCC[C@@H](CO)N(C(C)C)S(=O)(=O)c1ccc(C(C)=O)cc1)C(c1ccccc1)c1ccccc1` [Example K5, N-{(1S,5S)-5-[[(4-acetylphenyl)sulfonyl](isopropyl)amino]-6-bydroxy-1-methylhexyl}-Nα-(methoxycarbonyl)-β-phenyl-L-phenylalaninamide], the IC95 [1, 2] was 0.041 µM and the pIC50 (wild-type HIV-1 protease; [3]) was 9.55.
With `COC(=O)N[C@H](C(=O)NC1(CCC[C@@H](CO)N(CCC(C)C)S(=O)(=O)c2ccc(N)cc2)CCCC1)C(c1ccccc1)c1ccccc1` [Example L1, N-(1-{(4S)-4-[[(4-aminophenyl)sulfonyl](3-methylbutyl)amino]-5-hydroxypentyl}cyclopentyl)-Nα-(methoxycarbonyl)-β-phenyl-L-phenylalaninamide] the IC95 [1, 2] was 0.274 µM and the pIC50 (wild-type HIV-1 protease; [3]) was 9.43.
For `CC(C)N([C@H](CO)CCCC(C)(C)NC(=O)[C@@H](N)C(c1ccccc1)c1ccccc1)S(=O)(=O)c1ccc(N)cc1` [Example L2, N-{(5S)-5-[[(4-aminophenyl)sulfonyl](isopropyl)amino]-6-hydroxy-1,1-dimethylhexyl}-β-phenyl-L-phenylalaninamide], the IC95 [1, 2] was 0.023 µM and the pIC50 (wild-type HIV-1 protease; [3]) was 10.74.
`COC(=O)N[C@H](C(=O)NC1(CCCC(CO)N(CCC(C)C)S(=O)(=O)c2ccc(N)cc2)CCC1)C(c1ccccc1)c1ccccc1` (stereo partly drawn) [Example L3, N-(1-{4-[[(4-aminophenyl)sulfonyl](3-methylbutyl)amino]-5-hydroxypentyl}cyclobutyl)-Nα-(methoxycarbonyl)-β-phenyl-L-phenylalaninamide] was tested, and the IC95 [1, 2] was 0.471 µM and the pIC50 (wild-type HIV-1 protease; [3]) was 9.63.
`COC(=O)N[C@H](C(=O)NC(C)(C)CCC[C@@H](CO)N(CCC(C)C)S(=O)(=O)c1ccc(N)cc1)C(c1ccccc1)c1ccccc1` [Example L4, N-{(5S)-5-[[(4-aminophenyl)sulfonyl](3-methylbutyl)amino]-6-hydroxy-1,1-dimethylhexyl}-Nα-(methoxycarbonyl)-β-phenyl-L-phenylalaninamide] showed an IC95 [1, 2] of 0.041 µM and a pIC50 (wild-type HIV-1 protease; [3]) of 11.00.
`COC(=O)N[C@H](C(=O)NC(C)(C)CCC[C@@H](CO)N(CC(C)C)S(=O)(=O)c1ccc(N)cc1)C(c1ccccc1)c1ccccc1` [Example L5, N-{(5S)-5-[[(4-aminophenyl)sulfonyl](isobutyl)amino]-6-hydroxy-1,1-dimethylhexyl}-Nα-(methoxycarbonyl)-β-phenyl-L-phenylalaninamide] gave an IC95 [1, 2] of 0.185 µM and a pIC50 (wild-type HIV-1 protease; [3]) of 9.81.
With `CCCN([C@H](CO)CCCC(C)(C)NC(=O)[C@@H](NC(=O)OC)C(c1ccccc1)c1ccccc1)S(=O)(=O)c1ccc(N)cc1` [Example L6, N-{(5S)-5-[[(4-aminophenyl)sulfonyl](propyl)amino]-6-hydroxy-1,1-dimethylhexyl}-Nα-(methoxycarbonyl)-β-phenyl-L-phenylalaninamide] the IC95 [1, 2] was 0.196 µM and the pIC50 (wild-type HIV-1 protease; [3]) was 10.02.
`COC(=O)N[C@H](C(=O)NC(C)(C)CCC[C@@H](CO)N(CCCF)S(=O)(=O)c1ccc(N)cc1)C(c1ccccc1)c1ccccc1` [Example L7, N-{(5S)-5-[[(4-aminophenyl)sulfonyl](3-fluoropropyl)amino]-6-hydroxy-1,1-dimethylhexyl}-Nα-(methoxycarbonyl)-β-phenyl-L-phenylalaninamide] was tested, and the IC95 [1, 2] was 0.178 µM and the pIC50 (wild-type HIV-1 protease; [3]) was 10.21.
`COC(=O)N[C@H](C(=O)NC(C)(C)CCC[C@@H](CO)N(C(C)C)S(=O)(=O)c1ccc(N)cc1)C(c1ccccc1)c1ccccc1` [Example L8] showed an IC95 [1, 2] of 0.264 µM and a pIC50 (wild-type HIV-1 protease; [3]) of 9.57.
`CN[C@H](C(=O)NC(C)(C)CCC[C@@H](CO)N(C(C)C)S(=O)(=O)c1ccc(N)cc1)C(c1ccccc1)c1ccccc1` [Example L9, N-{(5S)-5-[[(4-aminophenyl)sulfonyl](isopropyl)amino]-6-hydroxy-1,1-dimethylhexyl}-Nα-methyl-β-phenyl-L-phenylalaninamide hydrochloride] was tested, and the IC95 [1, 2] was 0.026 µM and the pIC50 (wild-type HIV-1 protease) was 10.00.
With `CC(C)N([C@H](CO)CCCC(C)(C)NC(=O)[C@@H](N)Cc1ccccc1Cl)S(=O)(=O)c1ccc(N)cc1` [Example L10, N-{(5S)-5-[[(4-aminophenyl)sulfonyl](isopropyl)amino]-6-hydroxy-1,1-dimethylhexyl}-2-chloro-L-phenylalaninamide hydrochloride] the IC95 [1, 2] was 0.241 µM and the pIC50 (wild-type HIV-1 protease) was 8.49.
“Methyl {(1S)-1-(diphenylmethyl)-2-[((5S)-6-hydroxy-2-methyl-5-{(3-methylbutyl) [(4-methylphenyl)sulfonyl]amino}hexylamino]-2-oxoethyl}carbamate [Example C1]” was tested, and the IC95 ([1]; inhibition of HIV-1 replication, 10% FBS) was 0.193 µM and the pIC50 (wild-type HIV-1 protease; [3]) was 9.70.
